Measurements published in US10526325B2, “Bicyclic heterocyclic derivatives” (Merck Patent GmbH, priority 2015, dated 2020).

Key:
[1] = tested on: PDH-E1alpha (pSer300) in HEK293T cells; assay: Cellular immunofluorescence assay, PDH-E1alpha (pSer300) in HEK293T cells; type: cell-based, human; settings: Homo sapiens, HEK-293T, 5 hours incubation, anti-PDH-E1alpha (pSer300) immunofluorescence, read-out: IC50 (cell data)
Experimental: Cellular Assay for Determination of Compound Activities
Compound activities were determined in a cellular immunofluorescence assay. Human HEK293T cells were seeded into black 384-well plates with clear bottom and grown overnight.
Next day, test compounds were added to the wells and the plates incubated for 5 hours. Following this, cells were fixed with formaldehyde, permeabilised and blocked. The primary antibody, Anti-PDH-E1alpha (pSer300), AP1064 (Merck Millipore) was added and incubated overnight in the plate wells. Next, cells were washed and the secondary antibody, Alexa Fluor 488, goat anti-rabbit ab (A-11008, Invitrogen) was added together with Hoechst 33258 (H3569, Invitrogen) and incubated for 1 hour in the plate wells. Finally, cells were washed and the plates were measured on the laser scanning cytometer acumen hci (TTpLabtech).
The raw data were normalized against a pharmacological inhibitor control and dose response curves were generated by plotting the percent effect values using the software package Genedata screener (Genedata).

PDHK2 = PDHK2 (Homo sapiens (Human), UniProt Q15119); assay: Biochemical activity testing of PDHK2: PDC inactivation assay; settings: human rec PDHK2, porcine heart PDC, 5 μM ATP, read-out: IC50 PDHK2 (enzyme assay)
How it was run: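 Recombinant human PDHK2 (137 nM final) and porcine heart PDC (20 mU/ml) preincubated with compound 30 min at RT in pH 7.0 phosphate kinase buffer, then 5 μM ATP 30 min at 37° C. PDC activity read as NADH fluorescence increase (Ex 340/Em 450 nm) over 45 min with pyruvate, NAD and CoA; 3 mM DCA defined zero; IC50 determined.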

human PDHK2 (12-407) = human PDHK2 (12-407) (Homo sapiens (Human), UniProt Q15119); assay: Isothermal titration calorimetry (ITC) binding; settings: ITC at 30° C., pH 7.5
Experimental: Isothermal Titration Calorimetry
ITC measurements were performed with a VP-ITC micro calorimeter (Microcal, LLC/GE Healthcare Bio-Sciences Aft Uppsala, Sweden). In general titrations were performed by titrating the protein (50 μM) to the test compound (5 μM) in 12 μl injections. All binding experiments were carried out at 30° C. In general the test compounds were diluted form DMSO stock solutions into the measurement buffer with a maximum final concentration of 1% DMSO. The measurement buffer was 20 mM HEPES, 135 mM KCl, 1 mM TCEP, 2 mM MgCl2, 15 mM NaH2PO4, pH 7.5. The human PDHK2 (12-407) was produced in E. coli as his-tagged protein and purified by affinity chromatography. The tag was removed by side specific proteolysis. Before titration the protein buffer was changed to the measurement buffer containing the same DMSO concentration as the test compound dilution. ITC data analysis was performed using Origin 7 calorimetry software from the same supplier. For most measurements a binding model of one binding site was assumed. According to the applied mathematical model it is possible to calculate the binding constant (KA), the observed binding enthalpy (ΔH^obs) as well as the stoichiometry (N) of the formed complex.
Preceding analysis the raw data was corrected for the heats of dilution by extrapolating from the saturation value from the end of titration. In order to allow for direct comparison between the respective experimental series and protein preparations the protein concentration was corrected by referencing titrations to a well behaved standard inhibitor. The apparent stoichiometry values defined the fraction of binding competent protein and compensated for relative errors in protein concentration measurements. This corrected protein concentration was used to set up ITC experiment series with test compounds. Any deviations from ideal 1:1 stoichiometry observed here were attributed to errors in compound concentration. This nominal compound concentration was corrected as well to achieve 1:1 stoichiometry in the fit.

IC50 (PDHK2) [µM] | Kd (human PDHK2 (12-407)) [µM] | SMILES | IC50 [1] [µM]
0.3 to 3 | < 0.3 | C[C@@](O)(C(=O)N1CCc2c(nnn2-c2ccccc2)C1)C(F)(F)F [Compound A46, (R)-3,3,3-Trifluoro-2-hydroxy-2-methyl-1-(1-phenyl-1,4,6,7-tetrahydro-[1,2,3]triazolo[4,5-c]pyridin-5-yl)-propan-1-one] | 3 to 50
0.3 to 3 | < 0.3 | C[C@@](O)(C(=O)N1CCc2c(nnn2-c2ccc(F)cc2)C1)C(F)(F)F [Compound A47, (R)-3,3,3-Trifluoro-1-[1-(4-fluoro-phenyl)-1,4,6,7-tetrahydro-[1,2,3]triazolo[4,5-c]pyridin-5-yl]-2-hydroxy-2-methyl-propan-1-one] | 3 to 50
0.3 to 3 | < 0.3 | C[C@@](O)(C(=O)N1CCn2c(-c3ccccc3)cnc2C1)C(F)(F)F [Compound A49, (R)-3,3,3-Trifluoro-2-hydroxy-2-methyl-1-(3-phenyl-5,6-dihydro-8H-imidazo[1,2-a]pyrazin-7-yl)-propan-1-one] | 3 to 50
0.3 to 3 | < 0.3 | C[C@@](O)(C(=O)N1CCn2c(cnc2-c2ccccc2)C1)C(F)(F)F [Compound A50, (R)-3,3,3-Trifluoro-2-hydroxy-2-methyl-1-(3-phenyl-5,6-dihydro-8H-imidazo-[1,5-a]pyrazin-7-yl)-propan-1-one] | 3 to 50
0.3 to 3 | < 0.3 | C[C@@](O)(C(=O)N1CCn2c(cnc2-c2ccc(F)cc2)C1)C(F)(F)F [Compound A51, (R)-3,3,3-Trifluoro-1-[3-(4-fluoro-phenyl)-5,6-dihydro-8H-imidazo[1,5-a]pyrazin-7-yl]-2-hydroxy-2-methyl-propan-1-one] | 3 to 50
< 0.3 | < 0.3 | C[C@@H]1CN(C(=O)[C@@](C)(O)C(F)(F)F)Cc2cnc(-c3ccc(F)cc3)n21 [Compound A52, (R)-3,3,3-Trifluoro-1-[(R)-3-(4-fluoro-phenyl)-5-methyl-5,6-dihydro-8H-imidazo[1,5-a]pyrazin-7-yl]-2-hydroxy-2-methyl-propan-1-one] | < 0.3
< 0.3 | < 0.3 | C[C@@H]1CN(C(=O)[C@@](C)(O)C(F)(F)F)Cc2cnc(-c3ccc(F)cc3F)n21 [Compound A54, (R)-1-[(R)-3-(2,4-Difluoro-phenyl)-5-methyl-5,6-dihydro-8H-imidazo[1,5-a]pyrazin-7-yl]-3,3,3-trifluoro-2-hydroxy-2-methyl-propan-1-one] | < 0.3
0.3 to 3 | < 0.3 | C[C@@H]1CN(C(=O)[C@@](C)(O)C(F)(F)F)Cc2cnc(-c3ncc(F)cc3F)n21 [Compound A57, (R)-1-[(R)-3-(3,5-Difluoro-pyridin-2-yl)-5-methyl-5,6-dihydro-8H-imidazo[1,5-a]pyrazin-7-yl]-3,3,3-trifluoro-2-hydroxy-2-methyl-propan-1-one] | < 0.3
